Source: patent US11820835B2, “Cyclic tetrapeptide analogs” (University of Kansas, priority 2018, dated 2023)
Like-named read-outs stand apart in the source and are kept apart here. Non-standard residues stand in square brackets, D forms with d. Residues, ends and D or L forms follow the SMILES beside them. 2Pal = N[C@@H](Cc1ccccn1)C(=O)O; 3Pal = N[C@@H](Cc1cccnc1)C(=O)O; 4Pal = N[C@@H](Cc1ccncc1)C(=O)O

Experiments:
mice [1] = assay: Mouse 55° C. warm-water tail withdrawal assay, antinociception (opioid agonist activity); assay type: in vivo
Protocol: (§1) The analogs were evaluated in vivo in an analgesic assay (mouse 55° C. warm-water tail withdrawal assay) for opioid agonist and antagonist activity. Representative analogs were evaluated in a conditioned place preference (CPP) assay for their ability to prevent stress-induced relapse to cocaine-seeking behavior. Further, representative analogs were evaluated for opioid receptor affinity in radioligand binding assays (Table 2).

[2] = molecular target: T1, kappa opioid receptor (KOR) (Mus musculus, UniProt P33534); assay: Mouse 55° C. warm-water tail withdrawal assay, opioid antagonist activity (antagonism of KOR agonist U50,488); assay type: in vivo; details: for selectivity of opioid antagonism (KOR vs. MOR and DOR agonists): U50,488, morphine, SNC-80; for duration of KOR antagonism of centrally administered U50,488: 30 mg/kg p.o.; for antagonism of centrally (i.c.v.) administered KOR agonist U50,488: peptide given orally
T1 construct: from tissue; host or cells: living mouse (in vivo; CNS)
T1 sequence (P33534 whole entry): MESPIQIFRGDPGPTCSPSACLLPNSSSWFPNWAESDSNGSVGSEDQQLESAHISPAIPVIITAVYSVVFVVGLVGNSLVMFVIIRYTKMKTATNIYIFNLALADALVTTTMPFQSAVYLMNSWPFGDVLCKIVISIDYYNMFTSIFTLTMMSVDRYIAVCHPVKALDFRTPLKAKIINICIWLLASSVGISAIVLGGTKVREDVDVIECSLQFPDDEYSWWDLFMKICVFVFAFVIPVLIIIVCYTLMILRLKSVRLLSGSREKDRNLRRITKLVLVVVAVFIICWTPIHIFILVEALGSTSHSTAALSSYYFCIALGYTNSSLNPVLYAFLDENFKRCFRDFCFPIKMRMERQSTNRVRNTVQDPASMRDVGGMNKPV
Protocol: as §1

[3] = molecular target: KOR (kappa opioid receptor) (Homo sapiens, UniProt P41145); assay: Radioligand binding assay, KOR affinity; details: for Ki: read-out: KOR Ki (nM ± SEM); for Selectivity (KOR/MOR): ratio of KOR and MOR Ki
Chain of KOR (kappa opioid receptor) (P41145 whole entry): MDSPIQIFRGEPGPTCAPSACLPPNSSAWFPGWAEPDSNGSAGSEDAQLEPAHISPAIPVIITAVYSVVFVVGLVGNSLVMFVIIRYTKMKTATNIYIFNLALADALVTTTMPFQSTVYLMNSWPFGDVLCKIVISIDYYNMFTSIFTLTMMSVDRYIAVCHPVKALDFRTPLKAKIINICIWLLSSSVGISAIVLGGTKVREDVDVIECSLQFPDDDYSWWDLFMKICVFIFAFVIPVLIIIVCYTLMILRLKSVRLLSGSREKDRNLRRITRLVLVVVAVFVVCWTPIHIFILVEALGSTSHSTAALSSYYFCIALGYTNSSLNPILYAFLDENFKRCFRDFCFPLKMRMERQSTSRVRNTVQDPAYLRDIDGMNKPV
Protocol: as §1

MOR (mu opioid receptor) = MOR (mu opioid receptor) (Homo sapiens, UniProt P35372); assay: Radioligand binding assay, MOR affinity; details: read-out: MOR Ki (nM ± SEM)
Chain of MOR (mu opioid receptor) (P35372 whole entry): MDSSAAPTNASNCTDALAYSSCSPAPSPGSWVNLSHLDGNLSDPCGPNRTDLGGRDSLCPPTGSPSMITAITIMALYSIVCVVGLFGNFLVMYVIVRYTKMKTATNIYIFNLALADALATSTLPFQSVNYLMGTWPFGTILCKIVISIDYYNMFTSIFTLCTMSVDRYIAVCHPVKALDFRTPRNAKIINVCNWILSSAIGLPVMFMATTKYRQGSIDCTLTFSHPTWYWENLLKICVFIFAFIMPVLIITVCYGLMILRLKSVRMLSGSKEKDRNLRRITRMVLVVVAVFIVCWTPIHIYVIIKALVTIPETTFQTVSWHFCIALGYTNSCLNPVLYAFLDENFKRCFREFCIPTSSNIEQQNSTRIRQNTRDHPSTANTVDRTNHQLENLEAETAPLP
Protocol: as §1

[4] = molecular target: T1, kappa opioid receptor (KOR); details: p.o.; Eans et al., 2013; cited from earlier work
mice [5] = details: p.o., CPP assay; Eans et al., 2013; cited from earlier work
[6] = tested on: kappa opioid receptor (KOR); details: cited from earlier work
mice [7] = assay: Conditioned place preference (CPP) assay, stress-induced relapse to cocaine-seeking behavior; assay type: in vivo, mouse; details: p.o.
Protocol: as §1

[8] = Locomotion following oral administration; assay type: in vivo; details: 10 or 30 mg/kg p.o.
Excerpt: (§2) FIGS. 6A-B provides the results of studies on locomotion and respiration following oral administration of JVA-3620.
(§3) FIG. 7A-B provides the results of studies on locomotion and respiration following oral administration of JVA-3628.

[9] = Respiration following oral administration; assay type: in vivo; details: 10 or 30 mg/kg p.o.
Excerpt: as §2, §3

Compound	antinociception (agonist activity) (mice [1]; i.c.v. administration)	KOR antagonism ([2]; i.c.v. administration)	Ki [3] [nM]	Ki (MOR (mu opioid receptor)) [nM]	Selectivity (KOR/MOR) [3]	also measured
[D-hPhe^4]CJ-15,208 [JVA-3668]	agonist	not KOR antagonist				
O=C1N[C@H](Cc2c[nH]c3ccccc23)C(=O)N[C@@H](Cc2ccccc2)C(=O)N2CCC[C@@H]2C(=O)N[C@H]1Cc1c[nH]cn1 [JVA-3623] (cyclo(F[dP]H[dW]))			67.7 ± 9.2	366 ± 98		
O=C1N[C@H](Cc2c[nH]c3ccccc23)C(=O)N[C@@H](Cc2ccccc2)C(=O)N2CCC[C@@H]2C(=O)N[C@H]1Cc1ccccc1 [JVA-2802, cyclo[Phe′-D-Pro-Phe^3-D-Trp^4]] (cyclo(F[dP]F[dW]))			21.8		1/12	oral dose required to significantly antagonize centrally administered U50,488 [4]: 30 mg/kg; oral dose preventing stress-induced relapse of cocaine-seeking behavior (mice [5]): 60 mg/kg; duration of action ([6]; Ross et al., 2012, Eans et al., 2013): < 18 h
[D-Bip^4]CJ-15,208 [JVA-3667]	agonist	weak KOR antagonist				selectivity of opioid antagonism (KOR vs. MOR and DOR agonists) [2]: selective for KOR; KOR antagonism ([2]; oral (p.o.) administration): only KOR antagonism
CC(C)[C@@H](CN1CC[C@@](C)(c2cccc(O)c2)[C@@H](C)C1)NC(=O)[C@H]1Cc2ccc(O)cc2CN1 [JDTic]						duration of activity after a single dose ([6]; in vivo): weeks in some species
[D-2′-Pal^4]CJ-15,208 [JVA-3671]	exhibits antinociception	exhibits KOR antagonist activity				opioid receptor mediating the antinociception (mice [1]; i.c.v. administration): mediated by delta opioid receptors (DOR)
O=C1N[C@H](Cc2c[nH]c3ccccc23)C(=O)N[C@@H](Cc2c[nH]cn2)C(=O)N2CCC[C@@H]2C(=O)N[C@H]1Cc1ccccc1 [JVA-3622] (cyclo(H[dP]F[dW]))			667 ± 470	2500 ± 510		
[D-Tyr^4]CJ-15,208 [JVA-3669]	agonist	not KOR antagonist				
O=C1N[C@H](Cc2ccccc2)C(=O)N[C@@H](Cc2ccccc2)C(=O)N2CCC[C@@H]2C(=O)N[C@H]1Cc1ccccc1 [JVA-3620] (cyclo(F[dP]F[dF]))		exhibited KOR antagonism	28.9 ± 4.9	1100 ± 80	1/38	duration of KOR antagonism of centrally administered U50,488 [2]: 6 to 12 h; selectivity of opioid antagonism (KOR vs. MOR and DOR agonists) [2]: selectively antagonized the KOR agonist U50,488, but not the mu opioid receptor agonist morphine or the delta opioid receptor antagonist SNC-80; KOR antagonism ([2]; oral (p.o.) administration): exhibited KOR antagonism; oral dose required to significantly antagonize centrally administered U50,488 ([2]; p.o.): 10 mg/kg; antagonism of centrally (i.c.v.) administered KOR agonist U50,488 [2]: antagonized centrally (i.c.v.) administered KOR agonist; oral dose preventing stress-induced relapse of cocaine-seeking behavior (mice [7]): 30 mg/kg; locomotion [8]: does not produce hyperlocomotion like morphine, but instead can significantly decrease locomotion during the first hour; respiration [9]: decreases respiration during the first hour
O=C1N[C@H](Cc2c[nH]c3ccccc23)C(=O)N[C@@H](Cc2ccncc2)C(=O)N2CCC[C@@H]2C(=O)N[C@H]1Cc1ccccc1 [JVA-3629] (cyclo([4Pal][dP]F[dW]))			32 ± 4.1	2740 ± 310	1/86	
O=C1N[C@H](Cc2c[nH]c3ccccc23)C(=O)N[C@@H](Cc2ccccn2)C(=O)N2CCC[C@@H]2C(=O)N[C@H]1Cc1ccccc1 [JVA-3627] (cyclo([2Pal][dP]F[dW]))			58.4 ± 9.3	2530 ± 460	1/43	
O=C1N[C@H](Cc2c[nH]c3ccccc23)C(=O)N[C@@H](Cc2ccccc2)C(=O)N2CCC[C@@H]2C(=O)N[C@H]1Cc1ccncc1 [JVA-3625] (cyclo(F[dP][4Pal][dW]))			30.7 ± 6.8	371 ± 81	1/12	
O=C1N[C@H](Cc2c[nH]c3ccccc23)C(=O)N[C@@H](Cc2ccccc2)C(=O)N2CCC[C@@H]2C(=O)N[C@H]1Cc1ccccn1 [JVA-3626] (cyclo(F[dP][2Pal][dW]))			82.3 ± 13.8	1610 ± 590	1/20	
O=C1N[C@H](Cc2c[nH]c3ccccc23)C(=O)N[C@@H](Cc2ccccc2)C(=O)N2CCC[C@@H]2C(=O)N[C@H]1Cc1cccnc1 [JVA-3624] (cyclo(F[dP][3Pal][dW]))	exhibits antinociception	not KOR antagonism	8.34 ± 1.48	191 ± 39	1/23	antinociception ED50 (mice [1]; i.c.v.): 1.13 nmol
O=C1N[C@H](Cc2c[nH]c3ccccc23)C(=O)N[C@@H](Cc2cccnc2)C(=O)N2CCC[C@@H]2C(=O)N[C@H]1Cc1ccccc1 [JVA-3628] (cyclo([3Pal][dP]F[dW]))		selective KOR antagonism	41.8 ± 16.3	988 ± 146	1/24	duration of KOR antagonism of centrally administered U50,488 [2]: 12 to 24 h; selectivity of opioid antagonism (KOR vs. MOR and DOR agonists) [2]: opioid antagonism is selective for KOR; KOR antagonism ([2]; oral (p.o.) administration): antagonizing both peripherally and administered KOR agonist; antagonism of centrally (i.c.v.) administered KOR agonist U50,488 [2]: exhibits kappa opioid receptor (KOR) antagonism of centrally administered KOR agonist activity; oral dose preventing stress-induced relapse of cocaine-seeking behavior (mice [7]): 30 mg/kg; locomotion [8]: does not produce hyperlocomotion like morphine, but instead can significantly decrease locomotion during the first hour; respiration [9]: decreases respiration during the first hour
[D-His^4]CJ-15,208 [JVA-3670]	agonist	not KOR antagonist				KOR antagonism ([2]; oral (p.o.) administration): only KOR antagonism
